PubChem BioAssay AID1918935 (Molecular Pharmacology Branch, DTP, NCI, 2023)

System: 324938-238-R-J1-PDC complex spheroid viability
Experiment: Anticancer human tumor 324938-238-R-J1-PDC patient-derived bladder carcinoma cell line growth inhibition
Settings: for IC50: curve of first compound; for viability, T/C: stronger effect = lower value
In short: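 Complex spheroids of tumor cells with HUVEC and human MSCs, exposed to iadademstat combined with other agents. Each agent tested in half-log steps from near clinical Cmax (else 10 microM top), DMSO ≤0.25%.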

[1] = second compound 0.1 µM, first compound 0.00949 µM
[2] = second compound 0.1 µM, first compound 0.03 µM
[3] = second compound 0.1 µM, first compound 0.0949 µM
[4] = second compound 0.1 µM, first compound 0.3 µM
[5] = second compound 0.1 µM, first compound 0.949 µM
[6] = second compound 0.1 µM, first compound 3 µM
[7] = second compound 0.316 µM, first compound 0.00949 µM
[8] = second compound 0.316 µM, first compound 0.03 µM
[9] = second compound 0.316 µM, first compound 0.0949 µM
[10] = second compound 0.316 µM, first compound 0.3 µM
[11] = second compound 0.316 µM, first compound 0.949 µM
[12] = second compound 0.316 µM, first compound 3 µM
[13] = second compound 1 µM, first compound 0.00949 µM
[14] = second compound 1 µM, first compound 0.03 µM
[15] = second compound 1 µM, first compound 0.0949 µM
[16] = second compound 1 µM, first compound 0.3 µM
[17] = second compound 1 µM, first compound 0.949 µM
[18] = second compound 1 µM, first compound 3 µM
[19] = second compound 3.16 µM, first compound 0.00949 µM
[20] = second compound 3.16 µM, first compound 0.03 µM
[21] = second compound 3.16 µM, first compound 0.0949 µM
[22] = second compound 3.16 µM, first compound 0.3 µM
[23] = second compound 3.16 µM, first compound 0.949 µM
[24] = second compound 3.16 µM, first compound 3 µM
[25] = second compound 10 µM, first compound 0.00949 µM
[26] = second compound 10 µM, first compound 0.03 µM
[27] = second compound 10 µM, first compound 0.0949 µM
[28] = second compound 10 µM, first compound 0.3 µM
[29] = second compound 10 µM, first compound 0.949 µM
[30] = second compound 10 µM, first compound 3 µM
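Further: spheroids exposed to agents for 7 days before readout.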

`NS(=O)(=O)OCC1CC(n2ccc3c(NC4CCc5ccccc54)ncnc32)CC1O` (stereo not given) + NC1CC1c1ccc(-c2cccc(O)c2)cc1 was tested, and the IC50 (second compound 0.1 µM) was 327 nM, the IC50 (second compound 0.316 µM) was 230 nM and the IC50 (second compound 1 µM) was 299 nM. The IC50 (second compound 3.16 µM) was 300 nM, the IC50 (second compound 10 µM) was 334 nM and the viability, T/C [1] was 97.7%. It also gave a viability, T/C [2] of 101%, a viability, T/C [3] of 95.1% and a viability, T/C [4] of 53.2%. It also gave a viability, T/C [5] of 12.4%, a viability, T/C [6] of 12% and a viability, T/C [7] of 84.6%. It also gave a viability, T/C [8] of 84.8%, a viability, T/C [9] of 76% and a viability, T/C [10] of 42.7%. The viability, T/C [11] was 12.5%, the viability, T/C [12] was 11.9% and the viability, T/C [13] was 95.6%. It also gave a viability, T/C [14] of 77.8%, a viability, T/C [15] of 84.8% and a viability, T/C [16] of 49.9%. It also gave a viability, T/C [17] of 11.3%, a viability, T/C [18] of 9.03% and a viability, T/C [19] of 88.9%. It also gave a viability, T/C [20] of 93.6%, a viability, T/C [21] of 86.4% and a viability, T/C [22] of 50.3%. For the same compound, the viability, T/C [23] was 12.2%, the viability, T/C [24] was 9.8% and the viability, T/C [25] was 74.8%. The viability, T/C [26] was 86.4%, the viability, T/C [27] was 80.1% and the viability, T/C [28] was 52.6%. For the same compound, the viability, T/C [29] was 19.7% and the viability, T/C [30] was 12.4%.
In the case of `CC1(C)CCC(CN2CCN(c3ccc(C(=O)NS(=O)(=O)c4ccc(NCC5CCOCC5)c([N+](=O)[O-])c4)c(Oc4cnc5[nH]ccc5c4)c3)CC2)=C(c2ccc(Cl)cc2)C1` + NC1CCC(NC2CC2c2ccccc2)CC1, the IC50 (second compound 0.1 µM) is reported as 5120 nM, the IC50 (second compound 0.316 µM) is reported as 5640 nM and the IC50 (second compound 1 µM) is reported as 4250 nM. It also gave an IC50 (second compound 3.16 µM) of 4620 nM, an IC50 (second compound 10 µM) of 4480 nM and a viability, T/C (second compound 0.1 µM, first compound 0.0316 µM) of 75.7%. For the same compound, the viability, T/C (second compound 0.1 µM, first compound 0.1 µM) was 71.4%, the viability, T/C (second compound 0.1 µM, first compound 0.316 µM) was 72.2% and the viability, T/C (second compound 0.1 µM, first compound 1 µM) was 71%. For the same compound, the viability, T/C (second compound 0.1 µM, first compound 3.16 µM) was 65.2%, the viability, T/C (second compound 0.1 µM, first compound 10 µM) was 29.1% and the viability, T/C (second compound 0.316 µM, first compound 0.0316 µM) was 74.2%. For the same compound, the viability, T/C (second compound 0.316 µM, first compound 0.1 µM) was 75.5%, the viability, T/C (second compound 0.316 µM, first compound 0.316 µM) was 79.7% and the viability, T/C (second compound 0.316 µM, first compound 1 µM) was 71.2%. It also gave a viability, T/C (second compound 0.316 µM, first compound 3.16 µM) of 69.7%, a viability, T/C (second compound 0.316 µM, first compound 10 µM) of 30.9% and a viability, T/C (second compound 1 µM, first compound 0.0316 µM) of 75.2%. The viability, T/C (second compound 1 µM, first compound 0.1 µM) was 78%, the viability, T/C (second compound 1 µM, first compound 0.316 µM) was 68.7% and the viability, T/C (second compound 1 µM, first compound 1 µM) was 66.1%. For the same compound, the viability, T/C (second compound 1 µM, first compound 3.16 µM) was 60.6%, the viability, T/C (second compound 1 µM, first compound 10 µM) was 26.7% and the viability, T/C (second compound 3.16 µM, first compound 0.0316 µM) was 68.3%. For the same compound, the viability, T/C (second compound 3.16 µM, first compound 0.1 µM) was 68%, the viability, T/C (second compound 3.16 µM, first compound 0.316 µM) was 68.8% and the viability, T/C (second compound 3.16 µM, first compound 1 µM) was 70.8%. For the same compound, the viability, T/C (second compound 3.16 µM, first compound 3.16 µM) was 61.7%, the viability, T/C (second compound 3.16 µM, first compound 10 µM) was 24.8% and the viability, T/C (second compound 10 µM, first compound 0.0316 µM) was 71.7%. For the same compound, the viability, T/C (second compound 10 µM, first compound 0.1 µM) was 64.3%, the viability, T/C (second compound 10 µM, first compound 0.316 µM) was 64.7% and the viability, T/C (second compound 10 µM, first compound 1 µM) was 70.4%. It also gave a viability, T/C (second compound 10 µM, first compound 3.16 µM) of 59.5% and a viability, T/C (second compound 10 µM, first compound 10 µM) of 26%.
Compound `O=C(C=Cc1cccc(S(=O)(=O)Nc2ccccc2)c1)NO` + NC1CC1c1ccc(-c2cccc(O)c2)cc1 has an IC50 (second compound 0.1 µM) of 160 nM, an IC50 (second compound 0.316 µM) of 111 nM and an IC50 (second compound 1 µM) of 87.4 nM. For the same compound, the IC50 (second compound 3.16 µM) was 106 nM, the IC50 (second compound 10 µM) was 29.5 nM and the viability, T/C [1] was 84.3%. It also gave a viability, T/C [2] of 75.3%, a viability, T/C [3] of 59.1% and a viability, T/C [4] of 36.2%. It also gave a viability, T/C [5] of 24.5%, a viability, T/C [6] of 3.13% and a viability, T/C [7] of 69%. For the same compound, the viability, T/C [8] was 64.2%, the viability, T/C [9] was 52.6% and the viability, T/C [10] was 34.6%. For the same compound, the viability, T/C [11] was 21.9%, the viability, T/C [12] was 2.23% and the viability, T/C [13] was 62.6%. The viability, T/C [14] was 55.4%, the viability, T/C [15] was 50.5% and the viability, T/C [16] was 37.2%. For the same compound, the viability, T/C [17] was 20.1%, the viability, T/C [18] was 1.65% and the viability, T/C [19] was 64.2%. It also gave a viability, T/C [20] of 65.9%, a viability, T/C [21] of 50% and a viability, T/C [22] of 34.4%. It also gave a viability, T/C [23] of 23.6%, a viability, T/C [24] of 1.52% and a viability, T/C [25] of 57.7%. The viability, T/C [26] was 47.1%, the viability, T/C [27] was 40.1% and the viability, T/C [28] was 34.9%. It also gave a viability, T/C [29] of 24.6% and a viability, T/C [30] of 2.48%.
